Columns and labels:
[1] = test system: A431 human epidermoid carcinoma cells; experiment: Cell viability assay (trypan blue dye exclusion), viable cells counted at day 6; format: cell-based; conditions: 10 micromoles; for Treated (cell number × 10^5): about 4×10^4 cells seeded, untreated 5.4 ± 0.4; for % inhibiton: growth vs untreated
Method: (§1) The following cancer cells were maintained in Dulbecco's modified Eagle medium (DMEM) supplemented with 10 percent bovine calf serum. Cells were seeded for 24 hours. Then they were treated with PKC inhibitors or left untreated. The cells were then collected periodically and evaluated using trypan blue dye exclusion to assess viability using the method described by C Y Chen, et al., in J. Biol. Chem. 273:16700-16709. Cultures containing about 4×10^4 cells were treated with 5 micromoles of Gö7874 (except that PC3 prostate cancer cells were treated with 10 micromoles) and the viable cells were counted at day 6. […] Cultures containing about 4×10^4 cells were treated with or without 10 micromoles of Gö6850 and the viable cells were counted at day 6. […] Cultures containing about 4×10^4 cells were treated with or without 10 micromoles of NGIC-I and the viable cells were counted at day 6. […] Cultures containing about 4×10^4 cells were treated with or without 10 micromoles of Ro31-7549 and the viable cells were counted at day 6. […] Cultures containing about 4×10^4 cells were treated with or without 10 micromoles of Ro31-8220 and the viable cells were counted at day 6. […] Cultures containing about 4×10^4 cells were treated with or without 10 micromoles of Ro31-8425 and the viable cells were counted at day 6. […] Cultures containing about 4×10^4 cells were treated with or without 10 micromoles of Ro31-0432 and the viable cells were counted at day 6.

[2] = test system: AGS human gastric cancer cells; experiment: as above; format: cell-based; conditions: 10 micromoles; for Treated (cell number × 10^5): about 4×10^4 cells seeded, untreated 2.4 ± 0.3; for % inhibiton: growth vs untreated
Method: as §1

[3] = test system: H460 human lung cancer cells; experiment: as above; format: cell-based; conditions: 10 micromoles; for Treated (cell number × 10^5): about 4×10^4 cells seeded, untreated 2.4 ± 0.2; for % inhibiton: growth vs untreated
Method: as §1

[4] = test system: HT29 human colon cancer cells; experiment: as above; format: cell-based; conditions: 10 micromoles; for Treated (cell number × 10^5): about 4×10^4 cells seeded, untreated 3.8 ± 0.4; for % inhibiton: growth vs untreated
Method: as §1

[5] = test system: Hela human cervical cancer cells; experiment: as above; format: cell-based; conditions: 10 micromoles; for Treated (cell number × 10^5): about 4×10^4 cells seeded, untreated 3.4 ± 0.4; for % inhibiton: growth vs untreated
Method: as §1

[6] = test system: HepG2 human liver cancer cells; experiment: as above; format: cell-based; conditions: 10 micromoles; for Treated (cell number × 10^5): about 4×10^4 cells seeded, untreated 4.2 ± 0.4; for % inhibiton: growth vs untreated
Method: as §1

[7] = test system: Jurkat cells (a human acute T-cell leukemia cell line); experiment: as above; format: cell-based; conditions: 10 micromoles; for Treated (cell number × 10^5): about 4×10^4 cells seeded, untreated 8.8 ± 0.4; for % inhibiton: growth vs untreated
Method: as §1

[8] = test system: MDA-MB-468 human breast cancer cells; experiment: as above; format: cell-based; conditions: 10 micromoles; for Treated (cell number × 10^5): about 4×10^4 cells seeded, untreated 6.1 ± 0.4; for % inhibiton: growth vs untreated
Method: as §1

[9] = test system: NBT-II human bladder cancer cells; experiment: as above; format: cell-based; conditions: 10 micromoles; for Treated (cell number × 10^5): about 4×10^4 cells seeded, untreated 2.9 ± 0.4; for % inhibiton: growth vs untreated
Method: as §1

[10] = test system: PANC-1 human pancreatic carcinoma cells; experiment: as above; format: cell-based; conditions: 10 micromoles; for Treated (cell number × 10^5): about 4×10^4 cells seeded, untreated 2.1 ± 0.3; for % inhibiton: growth vs untreated
Method: as §1

[11] = test system: PC3 human prostate cancer cells; experiment: as above; format: cell-based; conditions: 10 micromoles; for Treated (cell number × 10^5): about 4×10^4 cells seeded, untreated 7.1 ± 0.3; for % inhibiton: growth vs untreated
Method: as §1

U251 human glioma cells = experiment: as above; format: cell-based; conditions: 10 micromoles; for Treated (cell number × 10^5): about 4×10^4 cells seeded, untreated 9.6 ± 0.5; for % inhibiton: growth vs untreated
Method: as §1

KB oral cancer cells = experiment: as above; format: cell-based, human; conditions: 10 micromoles; for Treated (cell number × 10^5): about 4×10^4 cells seeded, untreated 3.8 ± 0.4; for % inhibiton: growth vs untreated
Method: as §1

human cancer cells = experiment: Cell viability assay, summary over the panel of cancer cells; format: cell-based; conditions: 10 micromoles; day 6; cell lines not named as going to apoptosis
Method: The following cancer cells were maintained in Dulbecco's modified Eagle medium (DMEM) supplemented with 10 percent bovine calf serum. Cells were seeded for 24 hours. Then they were treated with PKC inhibitors or left untreated. The cells were then collected periodically and evaluated using trypan blue dye exclusion to assess viability using the method described by C Y Chen, et al., in J. Biol. Chem. 273:16700-16709. Cultures containing about 4×10^4 cells were treated with or without 10 micromoles of Gö6850 and the viable cells were counted at day 6. […] Cultures containing about 4×10^4 cells were treated with or without 10 micromoles of NGIC-I and the viable cells were counted at day 6. […] Cultures containing about 4×10^4 cells were treated with or without 10 micromoles of Ro31-7549 and the viable cells were counted at day 6. […] Cultures containing about 4×10^4 cells were treated with or without 10 micromoles of Ro31-8220 and the viable cells were counted at day 6. […] Cultures containing about 4×10^4 cells were treated with or without 10 micromoles of Ro31-8425 and the viable cells were counted at day 6. […] Cultures containing about 4×10^4 cells were treated with or without 10 micromoles of Ro31-0432 and the viable cells were counted at day 6.

Compound | Treated (cell number × 10^5) [1] | % inhibiton [1] [%] | Treated (cell number × 10^5) [2] | % inhibiton [2] [%] | Treated (cell number × 10^5) [3] | % inhibiton [3] [%] | Treated (cell number × 10^5) [4] | % inhibiton [4] [%] | Treated (cell number × 10^5) [5] | % inhibiton [5] | Treated (cell number × 10^5) [6] | % inhibiton [6] | Treated (cell number × 10^5) [7] | % inhibiton [7] | % inhibiton [8] | Treated (cell number × 10^5) [9] | % inhibiton [9] [%] | Treated (cell number × 10^5) [10] | % inhibiton [10] [%] | Treated (cell number × 10^5) [11] | other results
CN(C)CCCn1cc(C2=C(c3c[nH]c4ccccc34)C(=O)NC2=O)c2ccccc21 [Gö6850, 2-[1-(3-Dimethylaminopropyl)-1H-indol-3-yl]-3-(1H-indol-3-yl)-maleimide] | 4.1 × 10^5 | 24 | 1.5 × 10^5 | 34 | 1.6 × 10^5 | 31 | 2.4 × 10^5 | 22 | 0.3 × 10^5 | * (indicates the inhibitor causes significant cell death, and cell number is less than originally seeded cell number.) | 2.4 × 10^5 | 41% | 4.1 × 10^5 | 53% | 25% | 1.3 × 10^5 | 57 | 1.4 × 10^5 | 30 | 2.8 × 10^5 | cell numbers of treated cells [5]: significantly reduced cell numbers; Treated (cell number × 10^5) [8]: 4.6 ± 0.2 × 10^5; % inhibiton [11]: 60%; Treated (cell number × 10^5) (U251 human glioma cells): 7.2 × 10^5; % inhibiton (U251 human glioma cells): 23%; Treated (cell number × 10^5) (KB oral cancer cells): 1.7 × 10^5; % inhibiton (KB oral cancer cells): 55%; inhibition of growth in contrast to untreated cells, range over the other treated cancer cells (human cancer cells): 25-60%
N#CCCn1c2ccccc2c2c3c(c4c5ccccc5[nH]c4c21)C(=O)NC3 [NGIC-I, 12-propanenitrile,5,6,7,13-tetrahydro-5-oxo-12H-Indolo[2,3-a]pyrrolo[3,4-c]carbazole] | 2.7 × 10^5 | 49 | 1.7 × 10^5 | 30 | 1.6 × 10^5 | 32 | 3.2 × 10^5 | 15 | 0.3 × 10^5 | * (indicates the inhibitor causes significant cell death, and cell number is less than originally seeded cell number.) | 0.9 × 10^5 | 78% | 0.2 × 10^5 | * (indicates the inhibitor causes significant cell death, and cell number is less than originally seeded cell number.) | 78% | 0.9 × 10^5 | 73 | 1.2 × 10^5 | 44 | 3.7 × 10^5 | originally seeded cells survived [5]: 75%; originally seeded cells survived [7]: About 50%; % inhibiton [11]: 48%; Treated (cell number × 10^5) (U251 human glioma cells): 1.6 × 10^5; % inhibiton (U251 human glioma cells): 82%; cells that went to apoptosis upon treatment (KB oral cancer cells): all; Treated (cell number × 10^5) (KB oral cancer cells): 0 × 10^5; % inhibiton (KB oral cancer cells): * (indicates the inhibitor causes significant cell death, and cell number is less than originally seeded cell number.); inhibition of growth in contrast to untreated cells, range over the other treated cancer cells (human cancer cells): 25-82%
CN(C)CC1CCn2c(c(C3=C(c4cn(C)c5ccccc45)C(=O)NC3=O)c3ccccc32)C1.Cl (stereo not drawn) [Ro31-0432] | 4.2 × 10^5 | 21 | 1.7 × 10^5 | 30 | 1.3x ± × 10^5 | 48 | 3.0 × 10^5 | 19 | 1.3 × 10^5 | 60% | 2.4 × 10^5 | 43% | 1.4 × 10^5 | 81% | 30% | 2.3 × 10^5 | 19 | 1.2 ± 0.1 × 10^5 | 31 | 6.0 × 10^5 | % inhibiton [11]: 15%; Treated (cell number × 10^5) (U251 human glioma cells): 9.2 × 10^5; % inhibiton (U251 human glioma cells): 10%; Treated (cell number × 10^5) (KB oral cancer cells): 2.1 × 10^5; % inhibiton (KB oral cancer cells): 44%; inhibition of growth in contrast to untreated cells, range over the other treated cancer cells (human cancer cells): 10-60%
Cn1cc(C2=C(c3cn(CCCN)c4ccccc34)C(=O)NC2=O)c2ccccc21 [Ro31-7549, 2-[1-3(Aminopropyl)indol-3-yl]-3(1-methyl-1H-indol-3-yl)maleimide, Acetate] | 2.8 × 10^5 | 48 | 1.7 × 10^5 | 30 | 0.5 × 10^5 | 81 | 1.7 × 10^5 | 63 | 6 × 10^5 | * (indicates the inhibitor causes significant cell death, and cell number is less than originally seeded cell number.) | 0 × 10^5 | * (indicates the inhibitor causes significant cell death, and cell number is less than originally seeded cell number.) | 0.7 × 10^5 | 92% | * (indicates the inhibitor causes significant cell death, and cell number is less than originally seeded cell number.) | 0.6 ± 0.1 × 10^5 | 80 | 1.2 × 10^5 | 43 | 2.7 × 10^5 | cells that went to apoptosis upon treatment [5]: significant number; cells that went to apoptosis upon treatment [6]: all; cells that went to apoptosis upon treatment [8]: significant number; Treated (cell number × 10^5) [8]: 0.2 ± 0.05 × 10^5; % inhibiton [11]: 62%; Treated (cell number × 10^5) (U251 human glioma cells): 1.9 × 10^5; % inhibiton (U251 human glioma cells): 80%; cells that went to apoptosis upon treatment (KB oral cancer cells): all; Treated (cell number × 10^5) (KB oral cancer cells): 0 × 10^5; % inhibiton (KB oral cancer cells): * (indicates the inhibitor causes significant cell death, and cell number is less than originally seeded cell number.); inhibition of growth in contrast to untreated cells, range over the other treated cancer cells (human cancer cells): 43-92%
